Results as given in patent US20230077362A1 (CORTEVA AGRISCIENCE LLC, priority 2019, published 2023).
Like-named read-outs stand apart in the source and are kept apart here.

Experiments:
[1] = tested on: Beet Armyworm (Spodoptera exigua) ("BAW"), second instar larvae; assay: Bioassay on beet armyworm (BAW), 128-well diet tray assay; type: in vivo; conditions: for pest or weed control at 50 µg/cm2: Spodoptera exigua; for BAW rating: C = not tested, D = no activity noticed
Summary of the method: (§1)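 Second-instar larvae on diet in 128-well trays, covered and held at 25° C, 14:10 light-dark, for five to seven days. Percent mortality scored per well and averaged over eight wells; activity reported as a rating category.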

[2] = tested on: Cabbage Looper (Trichoplusia ni) ("CL"), second instar larvae; assay: Bioassay on cabbage looper (CL), 128-well diet tray assay; type: in vivo; conditions: for CL rating: C = not tested, D = no activity noticed
Summary of the method: as §1

[3] = Trichoplusia ni, read-out: CL rating
[4] = read-out: BAW (Biological Results, rating)
[5] = Trichoplusia ni, read-out: CL (Biological Results, rating)

SMILES	pest or weed control at 50 µg/cm2 ([1]; read-out: BAW rating)	pest or weed control at 50 µg/cm2 [2, 3]	also measured
CN(C)c1ccc(C(F)(F)F)c(N2C(=O)CS/C2=N\C(=O)Nc2ccc(-c3cn(-c4ccc(C(F)(F)F)cn4)cn3)cc2F)c1 [Compound J483, (Z)-1-(3-(5-(Dimethylamino)-2-(trifluoromethyl)phenyl)-4-oxothiazolidin-2-ylidene)-3-(2-fluoro-4-(1-(5-(trifluoromethyl)pyridin-2-yl)-1H-imidazol-4-yl)phenyl)urea]	50 to 100%	50 to 100%	–
Cc1ccc(COCC(F)(F)F)c(N2C(=O)CS/C2=N\C(=O)Nc2ccc(-c3ncn(-c4ccc(CC#N)cc4)n3)cc2F)c1 [Compound J425, (Z)-1-(4-(1-(4-(Cyanomethyl)phenyl)-1H-1,2,4-triazol-3-yl)-2-fluorophenyl)-3-(3-(5-methyl-2-((2,2,2-trifluoroethoxy)methyl)phenyl)-4-oxothiazolidin-2-ylidene)urea]	50 to 100%	50 to 100%	–
CCc1ccc(COCC(F)(F)F)c(N2C(=O)CS/C2=N\C(=O)Nc2ccc(-c3ncn(-c4ccc(OC(F)(F)F)cc4)n3)cc2F)c1 [Compound J634]	–	–	BAW rating ([1]; Table ABC, species BAW): A (50-100); CL rating ([2]; Table ABC, species CL): A (50-100)
Cc1ccc(COCC(Cl)Cl)c(N2C(=O)CS/C2=N\C(=O)Nc2ccc(-c3ncn(-c4ccc(S(F)(F)(F)(F)F)cc4)n3)cc2F)c1 [Compound J554]	–	–	BAW rating ([1]; Table ABC, species BAW): A (50-100); CL rating ([2]; Table ABC, species CL): A (50-100)
Cc1cc(-c2cn(-c3ccc(S(F)(F)(F)(F)F)cc3)cn2)ccc1NC(=O)/N=C1\SCC(=O)N1c1cc(N(C)C)ccc1C(C)C [Compound J618, (Z)-1-(3-(5-(Dimethylamino)-2-isopropylphenyl)-4-oxothiazolidin-2-ylidene)-3-(2-methyl-4-(1-(4-(pentafluoro-λ^6-sulfaneyl)phenyl)-1H-imidazol-4-yl)phenyl)urea]	50 to 100%	50 to 100%	–
Cc1ccc(COCC(F)(F)F)c(N2C(=O)CS/C2=N\C(=O)Nc2ccc(-n3cnc(-c4ccc(OC(F)(F)F)cc4)c3)cc2Cl)c1 [Compound J786, (Z)-1-(2-Chloro-4-(4-(4-(trifluoromethoxy)phenyl)-1H-imidazol-1-yl)phenyl)-3-(3-(5-methyl-2-((2,2,2-trifluoroethoxy)methyl)phenyl)-4-oxothiazolidin-2-ylidene)urea]	–	–	BAW rating (% control or mortality class) ([1]; Table ABC, species BAW, 128-well diet tray assay, second instar larvae): A (50-100); mortality at 50 µg/cm2 ([2]; Trichoplusia ni, Table ABC, species CL, 128-well diet tray assay, second instar larvae, read-out: CL rating (% control or mortality class)): 50 to 100%
Cc1ccc(COCC(F)(F)F)c(N2C(=O)CS/C2=N\C(=O)Nc2ccc(-c3ncn(-c4ccc(OC(F)(F)F)cn4)n3)cc2F)c1 [Compound J237, (Z)-1-(2-Fluoro-4-(1-(5-(trifluoromethoxy)pyridin-2-yl)-1H-1,2,4-triazol-3-yl)phenyl)-3-(3-(5-methyl-2-((2,2,2-trifluoroethoxy)methyl)phenyl)-4-oxothiazolidin-2-ylidene)urea]	–	–	pest or weed control at 50 µg/cm2 [1, 4]: 50 to 100%; pest or weed control at 50 µg/cm2 [2, 5]: 50 to 100%
Cc1ccc(COCC(F)(F)F)c(N2C(=O)CS/C2=N\C(=O)Nc2ccc(-c3ncn(-c4ccc(OC(F)(F)F)cc4)n3)cc2)c1 [Compound J331, (Z)-1-(3-(5-Methyl-2-((2,2,2-trifluoroethoxy)methyl)phenyl)-4-oxothiazolidin-2-ylidene)-3-(4-(1-(4-(trifluoromethoxy)phenyl)-1H-1,2,4-triazol-3-yl)phenyl)urea]	–	–	pest or weed control at 50 µg/cm2 [1, 4]: 50 to 100%; pest or weed control at 50 µg/cm2 [2, 5]: 50 to 100%
Cc1ccc(OCCC(F)(F)F)c(N2C(=O)CS/C2=N\C(=O)Nc2ccc(-c3cn(-c4ccc(C(F)(F)F)cc4)cn3)cc2C)c1 [Compound J527, (Z)-1-(3-(5-Methyl-2-(3,3,3-trifluoropropoxy)phenyl)-4-oxothiazolidin-2-ylidene)-3-(2-methyl-4-(1-(4-(trifluoromethyl)phenyl)-1H-imidazol-4-yl)phenyl)urea]	50 to 100%	50 to 100%	–
Cc1ccc(C(C)C)c(N2C(=O)CS/C2=N\C(=O)Nc2ccc(-c3cn(-c4ccc(C(F)(F)F)cc4)cn3)cc2)c1 [Compound J514, (Z)-1-(3-(2-Isopropyl-5-methylphenyl)-4-oxothiazolidin-2-ylidene)-3-(4-(1-(4-(trifluoromethyl)phenyl)-1H-imidazol-4-yl)phenyl)urea]	50 to 100%	50 to 100%	–
CC(C)c1ccc(N(C)C)cc1N1C(=O)CS/C1=N\C(=O)Nc1ccc(-c2ncn(-c3ccc(C(F)(F)F)cn3)n2)cc1F [Compound J336, (Z)-1-(3-(5-(Dimethylamino)-2-isopropylphenyl)-4-oxothiazolidin-2-ylidene)-3-(2-fluoro-4-(1-(5-(trifluoromethyl)pyridin-2-yl)-1H-1,2,4-triazol-3-yl)phenyl)urea]	–	–	pest or weed control at 50 µg/cm2 [1, 4]: 50 to 100%; pest or weed control at 50 µg/cm2 [2, 5]: 50 to 100%
COc1ccc(-n2cnc(-c3ccc(NC(=O)/N=C4\SCC(=O)N4c4cc(C)c(C)cc4COCC(F)(F)F)c(F)c3)n2)cc1 [Compound J756, (Z)-1-(3-(4,5-Dimethyl-2-((2,2,2-trifluoroethoxy)methyl)phenyl)-4-oxothiazolidin-2-ylidene)-3-(2-fluoro-4-(1-(4-methoxyphenyl)-1H-1,2,4-triazol-3-yl)phenyl)urea]	50 to 100%	50 to 100%	–
CCCc1ccc(N(C)C)cc1N1C(=O)CS/C1=N\C(=O)Nc1ccc(-c2ncn(-c3ccc(OC(F)(F)F)cn3)n2)cc1C#N [Compound J269, (Z)-1-(2-Cyano-4-(1-(5-(trifluoromethoxy)pyridin-2-yl)-1H-1,2,4-triazol-3-yl)phenyl)-3-(3-(5-(dimethylamino)-2-propylphenyl)-4-oxothiazolidin-2-ylidene)urea]	–	–	pest or weed control at 50 µg/cm2 [1, 4]: 50 to 100%; pest or weed control at 50 µg/cm2 [2, 5]: 50 to 100%
Cc1ccc(Cc2ccc(F)cc2)c(N2C(=O)CS/C2=N\C(=O)Nc2ccc(-c3ncn(-c4ccc(S(F)(F)(F)(F)F)cc4)n3)cc2C#N)c1 [Compound J683, (Z)-1-(2-Cyano-4-(1-(4-(pentafluoro-λ^6-sulfaneyl)phenyl)-1H-1,2,4-triazol-3-yl)phenyl)-3-(3-(2-(4-fluorobenzyl)-5-methylphenyl)-4-oxothiazolidin-2-ylidene)urea]	50 to 100%	50 to 100%	–
COC(C)c1ccc(C)cc1N1C(=O)CS/C1=N\C(=O)Nc1ccc(-c2ncn(-c3ccc(OCC#N)cc3)n2)cc1C (centres unmarked) [Compound J358, (Z)-1-(4-(1-(4-(Cyanomethoxy)phenyl)-1H-1,2,4-triazol-3-yl)-2-methylphenyl)-3-(3-(2-(1-methoxyethyl)-5-methylphenyl)-4-oxothiazolidin-2-ylidene)urea]	50 to 100%	50 to 100%	–
COC(c1ccc(C)cc1N1C(=O)CS/C1=N\C(=O)Nc1ccc(-c2nnc(-c3ccc(OC(F)(F)F)cc3)o2)cc1F)C(F)(F)F (centres unmarked) [Compound J433, (Z)-1-(2-Fluoro-4-(5-(4-(trifluoromethoxy)phenyl)-1,3,4-oxadiazol-2-yl)phenyl)-3-(3-(5-methyl-2-(2,2,2-trifluoro-1-methoxyethyl)phenyl)-4-oxothiazolidin-2-ylidene)urea]	50 to 100%	50 to 100%	–
CC(C)c1ccc(Cl)cc1N1C(=O)CS/C1=N\C(=O)Nc1ccc(-c2ncn(-c3ccc(OC(F)(F)F)cc3)n2)cc1F [Compound J46, (Z)-1-(3-(5-Chloro-2-isopropylphenyl)-4-oxothiazolidin-2-ylidene)-3-(2-fluoro-4-(1-(4-(trifluoromethoxy)phenyl)-1H-1,2,4-triazol-3-yl)phenyl)urea]	–	–	pest or weed control at 50 µg/cm2 [1, 4]: 50 to 100%; pest or weed control at 50 µg/cm2 [2, 5]: 50 to 100%
Cc1cc(-c2ncn(-c3ccc(OC(F)(F)F)cc3)n2)cc(C)c1NC(=O)/N=C1\SCC(=O)N1c1cc(N(C)C)ccc1C(C)C [Compound J96, (Z)-1-(2,6-Dimethyl-4-(1-(4-(trifluoromethoxy)phenyl)-1H-1,2,4-triazol-3-yl)phenyl)-3-(3-(5-(dimethylamino)-2-isopropylphenyl)-4-oxothiazolidin-2-ylidene)urea]	–	–	pest or weed control at 50 µg/cm2 [1, 4]: 50 to 100%; pest or weed control at 50 µg/cm2 [2, 5]: 50 to 100%
Cc1ccc(COCC(F)(F)Cl)c(N2C(=O)CS/C2=N\C(=O)Nc2ccc(-c3ncn(-c4ccc(OC(F)(F)F)cc4)n3)cc2C)c1 [Compound J436]	–	–	BAW rating ([1]; Table ABC, species BAW): A (50-100); CL rating ([2]; Table ABC, species CL): A (50-100)
N#Cc1ccc(OCCC(F)(F)F)c(N2C(=O)CS/C2=N\C(=O)Nc2ccc(-c3ncn(-c4ccc(SC(F)(F)F)cc4)n3)cc2)c1 [Compound J392, (Z)-1-(3-(5-Cyano-2-(3,3,3-trifluoropropoxy)phenyl)-4-oxothiazolidin-2-ylidene)-3-(4-(1-(4-((trifluoromethyl)thio)phenyl)-1H-1,2,4-triazol-3-yl)phenyl)urea]	50 to 100%	50 to 100%	–
Cc1ccc(C(C)C)c(N2C(=O)CS/C2=N\C(=O)Nc2ccc(-c3cn(-c4ccc(C(F)(F)F)cn4)cn3)cc2)c1 [Compound J519, (Z)-1-(3-(2-Isopropyl-5-methylphenyl)-4-oxothiazolidin-2-ylidene)-3-(4-(1-(5-(trifluoromethyl)pyridin-2-yl)-1H-imidazol-4-yl)phenyl)urea]	50 to 100%	50 to 100%	–
Cc1ccc(COCc2cccc(F)c2)c(N2C(=O)CS/C2=N\C(=O)Nc2ccc(-c3ncn(-c4ccc(OC(F)(F)F)cc4)n3)cc2F)c1 [Compound J568, (Z)-1-(2-fluoro-4-(1-(4-(trifluoromethoxy)phenyl)-1H-1,2,4-triazol-3-yl)phenyl)-3-(3-(2-(((3-fluorobenzyl)oxy)methyl)-5-methylphenyl)-4-oxothiazolidin-2-ylidene)urea]	50 to 100%	50 to 100%	–
